Entries after “also recorded” stand apart in the source; their conditions may differ.
Experiments:
Format in all cases: cell-based, C57Bl/6 mice
[1] = tested on: small intestine-derived organoids; test: Expression of cell proliferation marker Ki-67 by immunofluorescence; details: 1 μM SAG culture medium; 0, 24 and 48 hours after completion of culture; vs control group; FIG. 3
Protocol: (§1) Specifically, the organoids were fixed with 4% PFA, and 0.1% Triton X-100 in PBS was used to increase a permeability of the organoids. Subsequently, 3% BSA and 0.1% Triton X-100 were placed in a solution diluted in PBS for 1 hour to block a membrane of the organoids, and incubated with primary antibodies (anti-hTERT (ab32020, abcam), anti-Ki67 (ab16667, abcam), anti-Green Fluorescent Protein (GFP-1020, aveslabs), anti-Dclk1 (ab31704, abcam), anti-UEA 1 (RL-1062-2, Vector Laboratories)) at 4° C. for 1 day. After washing with PBS three times for 10 minutes at room temperature, incubation was performed with fluorescent secondary antibodies corresponding to each primary antibody for 2 hours. After washing gain with PBS three times for 10 minutes at room temperature, the organoid nuclei were stained with 4′, 6-diamidino-2-phenylindole, dihydrochloride (DAPI) for 5 minutes at room temperature. In order to confirm the radiation resistance of reserve stem cell-derived organoids prepared in Example 1, the formation of small intestinal crypts and the expression of a cell proliferation marker Ki-67 were confirmed after radiation expose. Specifically, 3 μM CHIR99021 and 1 mM Valproic acid were added to advanced DMEM F/12 medium supplemented with HEPES, glutamax, N-acetylcysteine, N2, B-27, R-spodin, noggin, and EGF. […]

[2] = tested on: small intestinal organoids; test: Differentiation potential: Dclk1 (tuft cells) and UEA-1 (goblet cells) immunofluorescence; details: culture medium comprising SAG vs control group not comprising SAG; FIG. 4
Protocol: Subsequently, 10 μM Y-27632 was added to the medium, and the organoids prepared in Example 1-1 were inoculated and cultured for 3 days. Then, 3 μM CHIR99021 (Sigma-Aldrich, Cat. No SML1046-5 MG) and 1 mM valproic acid (Sigma-Aldrich, Cat. No P4543-10G) were added and incubated for 4 days at 37° C. in a 5% CO2 incubator, followed by treatment with 1 μM SAG (Abcam, Cat. No ab142160) and incubation to culture the reserve stem cell-induced organoids.
as §1, with “temperature.” for “temperature. In order to confirm the radiation resistance of reserve stem cell-derived organoids prepared in Example 1, the formation of small intestinal crypts and the expression of a cell proliferation marker Ki-67 were confirmed after radiation expose. Specifically, 3 μM CHIR99021 and 1 mM Valproic acid were added to advanced DMEM F/12 medium supplemented with HEPES, glutamax, N-acetylcysteine, N2, B-27, R-spodin, noggin, and EGF.”

[3] = tested on: small intestine-derived organoids; test: Immunofluorescence of reserve stem cell marker TERT in SAG-treated organoids; details: 1 μM SAG after 3 μM CHIR99021 + 1 mM valproic acid; over time after incubation; FIG. 1
Protocol: To prepare small intestine-derived organoids, small intestine tissue was isolated from 4 to 8 week-old C57Bl/6 mice and perfused with PBS. The tissue was cut into pieces of 2 to 4 mm in size, placed in PBS, and washed clearly about 10 times. Then, the tissue was placed in PBS containing 200 mM EDTA, and incubated at 4° C. for 1 hour with shaking. Thereafter, the cells detached from the tissue were passed through a 70 um cell strainer, and centrifuged at 200 g. Organoids were prepared by mixing Matrigel in a 1:1 volume ratio with a culture medium containing settled small intestinal crypts and then performing three-dimensional culture.
The medium was prepared by adding a 10 mM HEPES buffer, 1X glutamax, 1 mM N-acetylcysteine, 1 volume of N2, 2 volumes of B-27, 20 volumes of RSPO (R-spodin), 10 volumes of noggin per 100 volumes of total medium, and 50 ng/ml of EGF to advanced DMEM F/12 medium (Gibco™, Cat. No 12634010) as a basic medium for small intestine organoids.
Subsequently, 10 μM Y-27632 was added to the medium, and the organoids prepared in Example 1-1 were inoculated and cultured for 3 days. […]

[4] = tested on: small intestine-derived organoids; test: Radiation resistance: formation of small intestinal crypts after X-ray irradiation; details: FIG. 2
Protocol: In order to confirm the radiation resistance of reserve stem cell-derived organoids prepared in Example 1, the formation of small intestinal crypts and the expression of a cell proliferation marker Ki-67 were confirmed after radiation expose. Specifically, 3 μM CHIR99021 and 1 mM Valproic acid were added to advanced DMEM F/12 medium supplemented with HEPES, glutamax, N-acetylcysteine, N2, B-27, R-spodin, noggin, and EGF. Thereafter, the organoids prepared in Example 1-1 were inoculated and cultured for 6 days, and then cultured for 3 days each under the conditions shown in the table below. [table] Then, the organoids cultured under each culture condition were irradiated once with 6 Gy of X-ray using a radiation irradiator (rs-320), and the formation of small intestinal crypts was confirmed after 72 hours.

In the case of `CNC1CCC(N(Cc2cccc(-c3ccncc3)c2)C(=O)c2sc3ccccc3c2Cl)CC1` (stereo not drawn) [SAG, smoothened receptor agonist (SAG)], the “expression of cell proliferation marker Ki-67” value [1] is reported as “expressed at a significantly higher level than a control group at each time point”, the “Dclk1 (tuft cells) marker” value [2] is reported as “significantly increased compared to the control group” and the “UEA-1 (goblet cells) marker” value [2] is reported as “significantly increased compared to the control group”. For the same molecule, the “activity of TERT (reserve stem cell marker)” value [3] was “significantly increased over time”, the “formation of small intestinal crypts” value ([4]; 1 μM SAG + 3 μM CHIR99021 + 1 mM valproic acid, 3 days, 6 Gy X-ray once, after 72 hours, vs control groups 1 and 2) was “significantly better formation of small intestinal crypts compared to the other control groups” and the radiation resistance ([4]; 1 μM SAG, 6 Gy X-ray, vs control groups) was “had resistance to radiation; also recorded: significantly higher radiation resistance than the other control groups”.
